Read-outs that look alike come from different tables or passages of the source.
Assays:
[1] = system: potato blight, Phytophthora infestans; format: in vivo; details: 5 days, controls less than 5%
[2] = system: potato blight Phytophthora infestans; format: in vivo; details: 5 days, controls less than 5%
[3] = system: Oat (Avena sativa); assay: Post-emergence foliar spray, herbicidal/growth regulant response, oat; format: in vivo; details: 168 h, foliar spray 11.2 kg/ha, 7 days, 0=no effect, 100=complete kill, read-out: herbicidal or growth regulant response index
Protocol: (§1) Seeds of the plant species listed below were sown in anodised aluminium pans, 19 cm long×9.5 cm wide×5 cm deep, containing John Innes I potting compost. They were then watered and placed in a controlled environment room (22° C.; 65-85% relative humidity; 14 hours per day artificial illumination at 13,000 lux). Fourteen days after sowing, the seedlings received a foliar spray of a compound listed below, formulated as a solution in 1:1 by volume aqueous acetone. The concentration of active ingredient and volume of application were adjusted so as to be equivalent to a rate of 11.2 kg/ha in 450 liters per hectare. After seven days growth in the controlled environment room, the plants were visually assessed for any herbicidal or growth regulant response. All differences from the untreated control were scored according to an index where 0=no effect and 100=complete kill.
(§2) The product of Example 95 was tested according to the procedure of Examples 49-55.

[4] = system: Oats (Avena sativa); assay: Soil incorporation (attaclay/sand dust), growth regulatory or herbicidal effects, oats; format: in vivo; details: 504 h, soil incorporation 130 ppm, 21 days, 0=no effect, 100=complete kill/suppression, read-out: growth regulatory or herbicidal effect score
Text: (§3) The compounds listed below were each formulated as an attaclay/sand dust and incorporated into John Innes I potting compost at a rate equivalent to 26 parts per million weight/volume of active ingredient to soil and placed in anodised aluminium pans, 19 cm long×9.5 cm wide×5.0 cm deep. This rate is approximately equivalent to a soil surface application of 11.2 kg active ingredient/hectare cultivated to a depth of 5 cm. Seeds of the species listed below were sown in the treated soil, watered and placed in a controlled environment room (22° C.; 65-85% relative humidity; 14 hours per day artificial illumination at 13,000 lux) for 21 days. The plants were then visually assessed for any growth regulatory or herbicidal effects. All differences from an untreated control were scored on a scale from 0-100, where 0 signifies no effect and 100 signifies complete kill.
(§4) The compounds listed below were tested according to the procedure of Examples 56-60 but at 130 parts per million weight/volume of active ingredient to soil. This rate is approximately equivalent to a soil surface application of 56 kg active ingredient per hectare cultivated to a depth of 5 cm.
(§5) The product of Example 95 was tested according to the procedure of Examples 56-60 but at 130 and 26 parts per million weight/volume. The results were as follows:
(§6) N-(2-oxopropyl)-2'-chloro-6'-methyl-methanesulphonanilide, formulated as an attaclay/sand dust, was incorporated in John Innes I potting compost at a rate equivalent to 130 parts per million weight/volume of active ingredient to soil and placed in anodised aluminium pans, 19 cm long×9.5 cm wide×5.0 cm deep. These rates are approximately equivalent to a soil surface application of 56 kg active ingredient per hectare cultivated to a depth of 5 cm. Seeds of Peas, Mustard, Linseed, Maize, Oats and Ryegrass were sown in the treated soil, watered and placed in a controlled environment room (22° C.; 65-85% relative humidity; 14 hours artificial illumination at 13000 lux) for 21 days.
(§7) The plants were then visually assessed for any growth regulatory or herbicidal effects. All differences from an untreated control were scored on a scale from 0-100, where 0 signifies no effect and 100 signifies complete suppression.

[5] = system: Linseed (Linum usitatissimum); assay: Post-emergence foliar spray, herbicidal/growth regulant response, linseed; format: in vivo; details: 168 h, foliar spray 11.2 kg/ha, 7 days, 0=no effect, 100=complete kill, read-out: herbicidal or growth regulant response index
Protocol: as §1, §2

[6] = system: Peas (Pisum sativum); assay: Soil incorporation (attaclay/sand dust), growth regulatory or herbicidal effects, peas; format: in vivo; details: Lathyrus oleraceus, 504 h, soil incorporation 130 ppm, 21 days, 0=no effect, 100=complete kill/suppression, read-out: growth regulatory or herbicidal effect score
Text: as §3, §4, §5, §6, §7

[7] = system: Ryegrass (Lolium perenne); assay: Post-emergence foliar spray, herbicidal/growth regulant response, ryegrass; format: in vivo; details: 168 h, foliar spray 11.2 kg/ha, 7 days, 0=no effect, 100=complete kill, read-out: herbicidal or growth regulant response index
Protocol: as §1, §2

[8] = system: Linseed (Linum usitatissimum); assay: Soil incorporation (attaclay/sand dust), growth regulatory or herbicidal effects, linseed; format: in vivo; details: 504 h, soil incorporation 130 ppm, 21 days, 0=no effect, 100=complete kill/suppression, read-out: growth regulatory or herbicidal effect score
Text: as §3, §4, §5, §6, §7

[9] = system: Ryegrass (Lolium perenne); assay: Soil incorporation (attaclay/sand dust), growth regulatory or herbicidal effects, ryegrass; format: in vivo; details: 504 h, soil incorporation 130 ppm, 21 days, 0=no effect, 100=complete kill/suppression, read-out: growth regulatory or herbicidal effect score
Text: as §3, §4, §5, §6, §7

[10] = system: Peas (Pisum sativum); assay: Post-emergence foliar spray, herbicidal/growth regulant response, peas; format: in vivo; details: Lathyrus oleraceus, 168 h, foliar spray 11.2 kg/ha, 7 days, 0=no effect, 100=complete kill, read-out: herbicidal or growth regulant response index
Protocol: as §1, §2

[11] = system: Mustard (Sinapis alba); assay: Post-emergence foliar spray, herbicidal/growth regulant response, mustard; format: in vivo; details: 168 h, foliar spray 11.2 kg/ha, 7 days, 0=no effect, 100=complete kill, read-out: herbicidal or growth regulant response index
Protocol: as §1, §2

[12] = system: Mustard (Sinapis alba); assay: Soil incorporation (attaclay/sand dust), growth regulatory or herbicidal effects, mustard; format: in vivo; details: 504 h, soil incorporation 130 ppm, 21 days, 0=no effect, 100=complete kill/suppression, read-out: growth regulatory or herbicidal effect score
Text: as §3, §4, §5, §6, §7

[13] = system: Maize (Zea mays); assay: Soil incorporation (attaclay/sand dust), growth regulatory or herbicidal effects, maize; format: in vivo; details: 504 h, soil incorporation 130 ppm, 21 days, 0=no effect, 100=complete kill/suppression, read-out: growth regulatory or herbicidal effect score
Text: as §3, §4, §5, §6, §7

[14] = system: Sugarbeet (Beta vulgaris); assay: Post-emergence foliar spray, herbicidal/growth regulant response, sugarbeet; format: in vivo; details: 168 h, foliar spray 11.2 kg/ha, 7 days, 0=no effect, 100=complete kill, read-out: herbicidal or growth regulant response index
Protocol: as §1, §2

[15] = system: Pythium ultimum; assay: Fungal growth on the surface of soil infected with damping-off disease organism; format: in vivo; details: 6 days, 25° C., 0-8 scale
Protocol: (§8) A one week old maize meal/sand culture of the damping-off disease organism Pythium ultimum was thoroughly mixed by hand with clean sterile John Innes No. 1 potting compost in the ratio of 3 kg culture to 12 liters of soil. The infected soil was then left for approximately 18 hours before use. Each of the compounds listed below was ground together with a wetting agent, Tween 20 (1% of final volume), until a solution or fine suspension was produced which was then diluted with distilled water to give 160 ml of solution containing 1500, 500, 150 or 50 ppm active ingredient. 15 ml aliquots of this solution were added to 75 g portions of the soil infected with Pythium ultimum which were contained in small plastic cartons, 60 mm diameter×55 mm high. Fifteen cabbage seeds, variety Flower of Spring, were placed in a circular depression in the treated infected soil, recovered, and the whole sealed with a plastic cap. The cartons were then placed in a constant temperature room at 25° C.±1° C. Four replications per treatment were made with one additional treatment where seeds were sown in soil which was chemically treated only, i.e. there was no infection. This latter treatment was included to measure the direct effect of the chemical on the germination of the seed. After six days the cartons were removed from the controlled temperature chamber and assessed for degree of fungal growth on the soil surface and percentage of seedling emergence. The results of both these assessments are expressed in a 0-8 scale as follows:
(§9) One week old maize meal/sand culture of the damping-off disease organism Pythium ultimum was thoroughly mixed by hand with clean sterile John Innes No. 1 potting compost in the ratio of 3 kg culture to 12 liters of soil. This infected soil was then left for approximately 18 hours before use. The compounds listed in the Table below were each ground with the wetting agent Tween 20 (1% of final volume), until a solution or fine suspension was produced, which was then diluted with distilled water to give 160 ml of solution containing 1500 or 500 parts per million (ppm) active ingredient. 15 ml aliquots of this solution were added to 75 g portions of the soil infected with Pythium ultimum which were contained in small plastic cartons, 60 mm diameter×55 mm high.
(§10) Fifteen cabbage seeds, variety Flower of Spring, were placed in a circular depression in the treated infected soil, recovered, and the whole sealed with a plastic cap. The cartons were then placed in a constant temperature room at 25° C.±1° C. Four replications per treatment were made, with one additional treatment where seeds were sown in soil which was chemically treated only, i.e. there was no infection. This latter treatment was included to measure the direct effect of the chemical on the germination of the seed.
(§11) After six days, the cartons were removed from the controlled temperature chamber and assessed for degree of fungal growth on the soil surface and percentage of seedling emergence. The results of both these assessments are expressed in a 0-8 scale as follows:
(§12) N-(2-oxopropyl)-3',4'-dimethyl-methanesulphonanilide was tested at a dose rate of 300 ppm in the test described in Examples 233 and 234. It gave a mycelial control score of 0 and a germination score of 3 whereas the untreated samples gave a score of 0 for both.

[16] = system: Pythium ultimum; assay: Cabbage seedling emergence in soil infected with Pythium ultimum; format: in vivo, Pythium ultimum (on cabbage, variety Flower of Spring); details: 6 days, 25° C., 0-8 scale
Protocol: as §8, §9, §10, §11, §12

[17] = system: barley powdery mildew Erysiphe graminis; assay: Barley powdery mildew control on barley plants; format: in vivo; details: 2000 ppm; soil and leaves; 10 days; controls less than 5%

Cc1cccc(C)c1N(CC1(C)OCCO1)S(C)(=O)=O [Example 231, N-[(2-methyl-1,3-dioxolan-2-yl)methyl]-2',6'-dimethylmethanesulphonanilide]
% Control, potato blight ([1]; 2,000 ppm): 98%

CCCS(=O)(=O)N(CC#N)c1ccc(Cl)c(Cl)c1 [Example 132]
% Control, potato blight ([2]; 500 ppm): 59%
% Control, potato blight ([2]; 2000 ppm): 76%

CCCCS(=O)(=O)N(c1c(C)cccc1C)C(C)C(=O)OCC (stereo not shown) [Example 27]
plant injury at 11200 g/ha [3]: 30%
plant injury at 130 µg/mL [4]: 100%
pest or weed control at 11200 g/ha [5]: 70%
pest or weed control at 130 µg/mL [6]: 20%
pest or weed control at 11200 g/ha [7]: 20%
pest or weed control at 130 µg/mL [8]: 100%
pest or weed control at 130 µg/mL [9]: 100%
pest or weed control at 11200 g/ha [10]: 5%
pest or weed control at 11200 g/ha [11]: 100%
pest or weed control at 130 µg/mL [12]: 100%
plant injury at 130 µg/mL [13]: 100%
plant injury at 11200 g/ha [14]: 90%

CCOC(=O)C(C)N(c1ccccc1Cl)S(C)(=O)=O (stereo not shown) [Example 25]
plant injury at 11200 g/ha [3]: 20%
plant injury at 130 µg/mL [4]: 20%
pest or weed control at 11200 g/ha [5]: 20%
pest or weed control at 130 µg/mL [6]: 5%
pest or weed control at 11200 g/ha [7]: 0%
pest or weed control at 130 µg/mL [8]: 50%
pest or weed control at 130 µg/mL [9]: 0%
pest or weed control at 11200 g/ha [10]: 5%
pest or weed control at 11200 g/ha [11]: 80%
pest or weed control at 130 µg/mL [12]: 100%
plant injury at 130 µg/mL [13]: 40%
plant injury at 11200 g/ha [14]: 30%

Cc1cccc(C)c1N(CC#N)S(C)(=O)=O [Example 46]
plant injury at 130 µg/mL [4]: 70%
pest or weed control at 130 µg/mL [6]: 20%
pest or weed control at 130 µg/mL [8]: 90%
pest or weed control at 130 µg/mL [9]: 80%
% Control, potato blight ([2]; 2000 ppm): 56%
pest or weed control at 130 µg/mL [12]: 100%
plant injury at 130 µg/mL [13]: 30%

CC(=O)CN(c1c(C)cccc1C)S(C)(=O)=O [Example 211, N-2-oxopropyl-2',6'-dimethyl-methanesulphonanilide]
% Control, potato blight ([1]; 125 ppm): 90%
% Control, potato blight ([1]; 500 ppm): 94%
% Control, potato blight ([1]; 2,000 ppm): 99%

CCOC(=O)C(C)N(c1c(C)cccc1C)S(=O)(=O)CC (stereo not shown) [Example 26, N-(1-[ethoxycarbonyl]ethyl)-2',6'-dimethyl-ethanesulphonanilide]
plant injury at 11200 g/ha [3]: 40%
plant injury at 130 µg/mL [4]: 100%
pest or weed control at 11200 g/ha [5]: 100%
pest or weed control at 130 µg/mL [6]: 100%
pest or weed control at 11200 g/ha [7]: 40%
Mycelial Control Score ([15]; 30 ppm): 0 (<20% inhibition)
Mycelial Control Score ([15]; 100 ppm): 0 (<20% inhibition)
Mycelial Control Score ([15]; 300 ppm): 0 (<20% inhibition)
pest or weed control at 130 µg/mL [8]: 100%
Germination Score ([16]; 30 ppm): 3 (45-54% inhibition)
Germination Score ([16]; 100 ppm): 4 (55-64% inhibition)
Germination Score ([16]; 300 ppm): 4 (55-64% inhibition)
pest or weed control at 130 µg/mL [9]: 100%
pest or weed control at 11200 g/ha [10]: 5%
pest or weed control at 11200 g/ha [11]: 100%
pest or weed control at 130 µg/mL [12]: 100%
plant injury at 130 µg/mL [13]: 100%
plant injury at 11200 g/ha [14]: 90%

Cc1ccc(N(CCCC#N)S(C)(=O)=O)cc1C [Example 148]
% Control, barley powdery mildew [17]: 89%

CCc1ccccc1N(C(C)C(=O)N1CCOCC1)S(C)(=O)=O (stereo not shown) [Example 41]
% Control, potato blight ([2]; 2000 ppm): 93%

COC(C)(CN(c1c(C)cccc1C)S(C)(=O)=O)OC [Example 224, N-(2,2-dimethoxypropyl)-2',6'-dimethyl-methanesulphonanilide]
% Control, potato blight ([1]; 500 ppm): 55%
% Control, potato blight ([1]; 2,000 ppm): 98%

CS(=O)(=O)N(CCCC#N)c1ccc(Cl)c(Cl)c1 [Example 147]
% Control, barley powdery mildew [17]: 96%

Cc1cccc(C)c1N(CCCC#N)S(C)(=O)=O [Example 146]
% Control, barley powdery mildew [17]: 92%

From patent US4309559A, “Sulphonamides useful as pesticides” (FBC Limited, priority 1977, dated 1982)
